In ChEMBL document CHEMBL2440076, “New triarylpyrazoles as broad-spectrum anticancer agents: design, synthesis, and biological evaluation” (Eur J Med Chem, 2013):
pIC50: −log10 of the molar value.

Columns and labels:
[1] = tested on: SK-MEL-2; test: Growth inhibition of human SK-MEL-2 cells assessed as cell growth at 10 uM after 48 hrs by sulforhodamine B assay; type: functional; conditions: SK-MEL-2, 48 h, read-out: Activity
[2] = tested on: HCT-116; test: Growth inhibition of human HCT116 cells assessed as cell growth at 10 uM after 48 hrs by sulforhodamine B assay; type: functional; conditions: HCT-116, 48 h, read-out: Activity
[3] = tested on: NCI-H23; test: Growth inhibition of human NCI-H23 cells assessed as cell growth at 10 uM after 48 hrs by sulforhodamine B assay; type: functional; conditions: NCI-H23, 48 h, read-out: Activity
[4] = tested on: MDA-MB-435; test: Growth inhibition of human MDA-MB-435 cells assessed as cell growth at 10 uM after 48 hrs by sulforhodamine B assay; type: functional; conditions: MDA-MB-435, 48 h, read-out: Activity
[5] = tested on: UO-31; test: Growth inhibition of human UO31 cells assessed as cell growth at 10 uM after 48 hrs by sulforhodamine B assay; type: functional; conditions: UO-31, 48 h, read-out: Activity
[6] = tested on: 786-0; test: Growth inhibition of human 786-0 cells assessed as cell growth at 10 uM after 48 hrs by sulforhodamine B assay; type: functional; conditions: 786-0, 48 h, read-out: Activity
[7] = tested on: UACC-62; test: Growth inhibition of human UACC62 cells assessed as cell growth at 10 uM after 48 hrs by sulforhodamine B assay; type: functional; conditions: UACC-62, 48 h, read-out: Activity
[8] = tested on: IGROV-1; test: Growth inhibition of human IGROV1 cells assessed as cell growth at 10 uM after 48 hrs by sulforhodamine B assay; type: functional; conditions: IGROV-1, 48 h, read-out: Activity
[9] = tested on: ACHN; test: Growth inhibition of human ACHN cells assessed as cell growth at 10 uM after 48 hrs by sulforhodamine B assay; type: functional; conditions: read-out: Activity
[10] = tested on: LOX IMVI; test: Growth inhibition of human LOXIMVI cells assessed as cell growth at 10 uM after 48 hrs by sulforhodamine B assay; type: functional; conditions: read-out: Activity
[11] = tested on: SW-620; test: Growth inhibition of human SW620 cells assessed as cell growth at 10 uM after 48 hrs by sulforhodamine B assay; type: functional; conditions: SW-620, 48 h, read-out: Activity
[12] = tested on: SF-268; test: Growth inhibition of human SF268 cells assessed as cell growth at 10 uM after 48 hrs by sulforhodamine B assay; type: functional; conditions: SF-268, 48 h, read-out: Activity
[13] = tested on: Malme-3M; test: Growth inhibition of human MALME-3M cells assessed as cell growth at 10 uM after 48 hrs by sulforhodamine B assay; type: functional; conditions: read-out: Activity
[14] = tested on: SF-295; test: Growth inhibition of human SF295 cells after 48 hrs by sulforhodamine B assay; type: functional, cell-based; conditions: SF-295, 48 h
[15] = tested on: HOP-92; test: Growth inhibition of human HOP92 cells after 48 hrs by sulforhodamine B assay; type: functional, cell-based; conditions: HOP-92, 48 h
[16] = tested on: IGROV-1; test: Growth inhibition of human IGROV1 cells after 48 hrs by sulforhodamine B assay; type: functional; conditions: IGROV-1, 48 h
[17] = tested on: OVCAR-4; test: Growth inhibition of human OVCAR4 cells after 48 hrs by sulforhodamine B assay; type: functional; conditions: OVCAR-4, 48 h
[18] = tested on: SK-OV-3; test: Growth inhibition of human SKOV3 cells after 48 hrs by sulforhodamine B assay; type: functional; conditions: SK-OV-3, 48 h
[19] = tested on: OVCAR-5; test: Growth inhibition of human OVCAR5 cells after 48 hrs by sulforhodamine B assay; type: functional; conditions: OVCAR-5, 48 h
[20] = tested on: A498; test: Growth inhibition of human A498 cells after 48 hrs by sulforhodamine B assay; type: functional, cell-based; conditions: A498, 48 h
[21] = tested on: M14; test: Growth inhibition of human M14 cells after 48 hrs by sulforhodamine B assay; type: functional; conditions: M14, 48 h
[22] = tested on: SN12C; test: Growth inhibition of human SN12C cells after 48 hrs by sulforhodamine B assay; type: functional
[23] = tested on: PC-3; test: Growth inhibition of human PC3 cells after 48 hrs by sulforhodamine B assay; type: functional, cell-based; conditions: PC-3, 48 h
[24] = tested on: HOP-62; test: Growth inhibition of human HOP62 cells after 48 hrs by sulforhodamine B assay; type: functional; conditions: HOP-62, 48 h
[25] = tested on: NCI-H522; test: Growth inhibition of human NCI-H522 cells after 48 hrs by sulforhodamine B assay; type: functional; conditions: NCI-H522, 48 h
[26] = tested on: NCI-H460; test: Growth inhibition of human NCI-H460 cells after 48 hrs by sulforhodamine B assay; type: functional; conditions: NCI-H460, 48 h
[27] = tested on: MCF7; test: Growth inhibition of human MCF7 cells after 48 hrs by sulforhodamine B assay; type: functional; conditions: MCF7, 48 h
[28] = tested on: SF-268; test: Growth inhibition of human SF268 cells after 48 hrs by sulforhodamine B assay; type: functional; conditions: SF-268, 48 h
[29] = tested on: NCI-H226; test: Growth inhibition of human NCI-H226 cells after 48 hrs by sulforhodamine B assay; type: functional; conditions: NCI-H226, 48 h
[30] = tested on: LOX IMVI; test: Growth inhibition of human LOXIMVI cells after 48 hrs by sulforhodamine B assay; type: functional
[31] = Growth inhibition of human Hs 578T cells after 48 hrs by sulforhodamine B assay; type: functional
[32] = tested on: SNB-75; test: Growth inhibition of human SNB75 cells after 48 hrs by sulforhodamine B assay; type: functional; conditions: SNB-75, 48 h
[33] = tested on: Malme-3M; test: Growth inhibition of human MALME-3M cells after 48 hrs by sulforhodamine B assay; type: functional
[34] = tested on: CCRF-CEM; test: Growth inhibition of human CCRF-CEM cells after 48 hrs by sulforhodamine B assay; type: functional
[35] = read-out: LC50 (the source's name)

O=C(Nc1cccc(-n2cc(-c3ccncc3)c(-c3ccc(Cl)c(O)c3)n2)c1)c1ccccc1
growth at 10 µM [1]: 67.9% | growth at 10 µM [2]: 57.8% | growth at 10 µM [3]: 90.8% | growth at 10 µM [4]: 56.1% | growth at 10 µM [5]: 83.1% | growth at 10 µM [6]: 76.1% | growth at 10 µM [7]: 68.3% | growth at 10 µM [8]: 88% | growth at 10 µM [9]: 53.2% | growth at 10 µM [10]: 68.5% | growth at 10 µM [11]: 76.9% | growth at 10 µM [12]: 68.3% | growth at 10 µM [13]: 53.1%

COc1cc(-c2nn(-c3cccc(NC(=O)Nc4ccc(Cl)c(Cl)c4)c3)cc2-c2ccncc2)ccc1Cl
growth at 10 µM [1]: -44.2% | GI50 [14]: 0.691 µM | pIC50 [14]: 6.16 | TGI [14]: 2.53 µM | CC50 [14, 35]: > 50 µM | GI50 [15]: 0.151 µM | pIC50 [15]: 6.82 | LC50 [15]: > 50 µM | TGI [15]: 1.47 µM | GI50 [16]: 1.18 µM | LC50 (concentration killing 50% of cells) [16]: > 50 µM | TGI [16]: 3.48 µM | GI50 [17]: 1.29 µM | LC50 (concentration killing 50% of cells) [17]: > 50 µM | TGI [17]: > 50 µM | growth at 10 µM [2]: 8.67% | GI50 [18]: 1.93 µM | TGI [18]: > 50 µM | CC50 [18, 35]: > 50 µM | GI50 [19]: 2.13 µM | LC50 (concentration killing 50% of cells) [19]: > 50 µM | TGI [19]: > 50 µM | growth at 10 µM [3]: 1.67% | GI50 [20]: 1.14 µM | pIC50 [20]: 5.94 | TGI [20]: 4.59 µM | CC50 [20, 35]: > 50 µM | growth at 10 µM [4]: -45.8% | growth at 10 µM [5]: 15.9% | growth at 10 µM [6]: 15.3% | GI50 [21]: 0.911 µM | LC50 (concentration killing 50% of cells) [21]: 41.2 µM | TGI [21]: 2.69 µM | GI50 [22]: 1.47 µM | TGI [22]: > 50 µM | CC50 [22, 35]: > 50 µM | growth at 10 µM [7]: -65.1% | GI50 [23]: 0.554 µM | pIC50 [23]: 6.26 | TGI [23]: 2.83 µM | CC50 [23, 35]: > 50 µM | growth at 10 µM [8]: 23.9% | GI50 [24]: 1.44 µM | TGI [24]: 4.9 µM | CC50 [24, 35]: > 50 µM | GI50 [25]: 0.811 µM | LC50 (concentration killing 50% of cells) [25]: > 50 µM | TGI [25]: 3.1 µM | growth at 10 µM [9]: 11.5% | GI50 [26]: 1.11 µM | LC50 [26]: > 50 µM | TGI [26]: > 50 µM | GI50 [27]: 0.945 µM | LC50 [27]: > 50 µM | TGI [27]: > 50 µM | growth at 10 µM [10]: 1.38% | growth at 10 µM [11]: 13.4% | GI50 [28]: 1.51 µM | TGI [28]: 20.3 µM | CC50 [28, 35]: > 50 µM | GI50 [29]: 1.35 µM | TGI [29]: > 50 µM | CC50 [29, 35]: > 50 µM | GI50 [30]: 0.954 µM | LC50 [30]: > 50 µM | TGI [30]: 2.62 µM | GI50 [31]: 1.43 µM | TGI [31]: > 50 µM | CC50 [31, 35]: > 50 µM | GI50 [32]: 1.05 µM | LC50 (lethal concentration, 50% net cell kill) [32]: > 50 µM | TGI [32]: 5.17 µM | GI50 [33]: 0.926 µM | LC50 (concentration killing 50% of starting cells) [33]: > 50 µM | TGI [33]: 2.42 µM | growth at 10 µM [12]: 17.9% | GI50 [34]: 1.04 µM | LC50 [34]: > 50 µM | growth at 10 µM [13]: -19.9%

O=C(Nc1cccc(-n2cc(-c3ccncc3)c(-c3ccc(Cl)c(O)c3)n2)c1)c1ccc(Cl)c(C(F)(F)F)c1
growth at 10 µM [1]: 93.7% | growth at 10 µM [2]: 100% | growth at 10 µM [3]: 105% | growth at 10 µM [4]: 97.8% | growth at 10 µM [5]: 81.2% | growth at 10 µM [6]: 108% | growth at 10 µM [7]: 100% | growth at 10 µM [8]: 98.4% | growth at 10 µM [9]: 86.6% | growth at 10 µM [10]: 91.3% | growth at 10 µM [11]: 112% | growth at 10 µM [12]: 98.1% | growth at 10 µM [13]: 79.5%
